Patent US6756374B2, “Diaminothiazoles having antiproliferative activity” (Hoffmann-La Roche Inc., priority 2001, dated 2004)

Columns and labels:
human cyclin B-CDK1 = human cyclin B-CDK1 (Homo sapiens, UniProt P06493); experiment: FlashPlate kinase assay, cyclin B-CDK1; type: biochemical; details: Rb protein substrate, 1 μM ATP
Procedure: (§1) To determine inhibition of Cdk4, Cdk2 and Cdk1 activity, kinase assays were conducted using FlashPlate™ assays (NEN™-Life Science Products). FlashPlate assays were performed using recombinant human cyclin B-CDK1, human cyclin E-CDK2 or human cyclin D1-CDK4 complexes. GST-cyclinE (GST-cycE), CDK2, GST-cyclinB (GST-cycB), CDK1, GST-CDK4 and cyclin D1 (cycD1) cDNA clones in baculovirus vectors were provided by Dr. W. Harper at the Baylor College of Medicine, Houston, Tex.
(§2) The expression of the 62Kd protein was under the control of an IPTG inducible promoter in an M15 E. coli strain. Cells were lysed by sonication and purification was carried out by binding lysates at pH 8.0 to a Ni-chelated agarose column pretreated with 1 mM imidazole. The resin was then washed several times with incrementally decreasing pH buffers to pH 6.0, and eluted with 500 mM imidazole. Eluted protein was dialysed against 20 mM HEPES pH 7.5, 30% glycerol, 200 mM NaCl, and 1 mM DTT. Purified Rb fusion protein stocks were quantitated for protein concentration, aliquoted, and stored at −70° C.
(§3) For all three kinase assays reported herein, 96-well FlashPlates were coated with Rb protein at 10 μg/ml, using 100 μl per well. Plates were incubated at 4° C. overnight or at room temperature for 3 hours on a shaker. To control for nonspecific phosphorylation, one row of wells was coated with 100 μl/well coating buffer (20 mM HEPES, 0.2 M NaCl). Plates were then washed twice with wash buffer (0.01% Tween 20 in phosphate-buffered saline). Compounds to be tested (“test compounds”) were added to the wells at 5×final concentration. Reactions were initiated by immediate addition of 40 μl reaction mix (25 mM HEPES, 20 mM MgCl2, 0.002% Tween 20, 2 mM DTT, 1 μM ATP, 4 nM ^33P-ATP) and a sufficient amount of enzyme to give counts that were at least 10-fold above background. Plates were incubated at room temperature on a shaker for 30 minutes. Plates were washed four times with the wash buffer, sealed, and counted on the TopCount scintillation counter (Packard Instrument Co., Downers Grove, Ill.]. The percent inhibition of Rb phosphorylation, which is a measure of the inhibition of CDK activity, was determined according to the following formula: [formula]
(§4) where “test compound” refers to the average counts per minute of the test duplicates, “nonspecific” refers to the average counts per minute when no CyclinD/Cdk4, etc., was added, and “total” refers to the average counts per minute when no compound was added.

human cyclin D1-CDK4 = human cyclin D1-CDK4 (Homo sapiens, UniProt P11802); experiment: FlashPlate kinase assay, cyclin D1-CDK4; type: biochemical; details: Rb protein substrate, 1 μM ATP
Sequence of human cyclin D1-CDK4 (P11802 whole entry): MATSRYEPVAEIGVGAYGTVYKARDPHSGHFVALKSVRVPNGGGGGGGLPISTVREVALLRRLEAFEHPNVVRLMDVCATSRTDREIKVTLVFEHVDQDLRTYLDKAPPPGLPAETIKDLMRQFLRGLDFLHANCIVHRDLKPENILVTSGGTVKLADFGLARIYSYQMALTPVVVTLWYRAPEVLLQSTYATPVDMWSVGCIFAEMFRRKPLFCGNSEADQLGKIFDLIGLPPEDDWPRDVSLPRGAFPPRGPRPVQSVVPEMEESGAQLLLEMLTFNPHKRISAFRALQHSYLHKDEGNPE
Sequence of human cyclin D1-CDK4 (P24385 whole entry partner): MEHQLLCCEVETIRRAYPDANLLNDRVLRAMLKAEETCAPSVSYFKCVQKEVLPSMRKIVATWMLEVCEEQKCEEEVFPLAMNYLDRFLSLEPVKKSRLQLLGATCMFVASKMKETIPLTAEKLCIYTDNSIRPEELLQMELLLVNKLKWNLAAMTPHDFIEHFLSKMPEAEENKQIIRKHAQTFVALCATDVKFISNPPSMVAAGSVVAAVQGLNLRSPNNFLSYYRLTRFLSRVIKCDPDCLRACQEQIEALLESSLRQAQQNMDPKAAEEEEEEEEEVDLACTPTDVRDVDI
Procedure: as §1, §2, §3, §4

human cyclin E-CDK2 = human cyclin E-CDK2 (Homo sapiens, UniProt P24941); experiment: FlashPlate kinase assay, cyclin E-CDK2; type: biochemical; details: Rb protein substrate, 1 μM ATP
Procedure: as §1, §2, §3, §4

HCT116 = experiment: Tetrazolium dye (MTT) proliferation assay; type: cell-based; details: Homo sapiens, HCT-116; HCT116 colorectal carcinoma cell line
Procedure: The cell line used was HCT116, a colorectal carcinoma cell line obtained from the American Type Cell Culture Collection (ATCC;
Rockville, Md.). The cells were grown in McCoy's 5A medium supplemented with 10% FCS and L-glutamine.
Cells were plated at the appropriate seeding density to give logarithmic growth over the course of the assay in a 96-well tissue culture plate. Plates were incubated overnight at 37° C. in a humidified incubator with 5% CO2. The next day, test compounds were serially diluted to four times the final concentration in the appropriate medium containing 1.2% DMSO. One-fourth final volume of each dilution was added in duplicate to the plates containing cells. The same volume of 1.2% DMSO in medium was added to a row of “control wells” such that the final concentration of DMSO in each well was 0.3%. Wells to which no cells were added served as the “blank.” Wells to which no inhibitor was added served as “no inhibitor control.” The plates were) returned to the incubator, and at set time points (determined by their growth curves) plates were analyzed as described below.
3-(4,5-dimethylthiazole-2-yl)-2,5-diphenyl-2H-tetrazolium bromide (thiazolyl blue; MTT; Sigma) was added to each well to yield a final concentration of 1 mg/ml. Plates were returned to the incubator for 2.5-3 hours at 37° C. The MTT-containing medium was removed and the resulting formazan metabolite was solubilized in 100% ethanol with shaking for 15 minutes at room temperature. Absorbance readings were taken in a microtiter plate reader (Dynatech and Molecular Devices plate readers were used interchangeably) at a wavelength of 570 nm with a 650 nm reference. Percent inhibition (% INH) is calculated by subtracting the absorbance of the blank well from all wells, then subtracting the ratio of the average absorbance of each test duplicate (SAVE) by the average of the controls (CAVE) from 1.00. The final number is then multiplied by 100 (% INH=(1.00−SAVE/CAVE)×100).

Sequence of human cyclin B-CDK1 (P06493 whole entry): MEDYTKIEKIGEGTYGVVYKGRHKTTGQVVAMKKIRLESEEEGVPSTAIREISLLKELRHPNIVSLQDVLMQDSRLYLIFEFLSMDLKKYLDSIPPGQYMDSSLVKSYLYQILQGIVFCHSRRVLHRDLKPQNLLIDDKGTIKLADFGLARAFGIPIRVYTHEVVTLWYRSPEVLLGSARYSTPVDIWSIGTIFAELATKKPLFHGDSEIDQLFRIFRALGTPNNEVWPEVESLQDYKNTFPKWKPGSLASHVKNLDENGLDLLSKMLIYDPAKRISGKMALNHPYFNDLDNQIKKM
Sequence of human cyclin B-CDK1 (P14635 whole entry partner): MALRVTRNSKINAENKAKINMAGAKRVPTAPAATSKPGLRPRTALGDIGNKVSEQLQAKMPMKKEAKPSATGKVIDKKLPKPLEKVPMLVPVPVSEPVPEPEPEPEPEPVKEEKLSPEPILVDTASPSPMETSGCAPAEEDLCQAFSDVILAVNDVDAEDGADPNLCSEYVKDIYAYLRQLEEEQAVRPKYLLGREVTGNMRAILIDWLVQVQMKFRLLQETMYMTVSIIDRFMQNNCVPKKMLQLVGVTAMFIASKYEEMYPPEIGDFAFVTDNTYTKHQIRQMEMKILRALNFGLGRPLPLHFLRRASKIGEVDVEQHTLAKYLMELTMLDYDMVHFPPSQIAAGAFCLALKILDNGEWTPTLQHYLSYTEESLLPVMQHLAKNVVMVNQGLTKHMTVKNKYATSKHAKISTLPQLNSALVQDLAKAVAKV

SMILES | IC50 (human cyclin B-CDK1) | IC50 (human cyclin D1-CDK4) | IC50 (human cyclin E-CDK2) | IC50 (HCT116)
CN1CCN(c2ccc(Nc3nc(N)c(C(=O)c4ccc(N5CCCC(CO)C5)c([N+](=O)[O-])c4)s3)cc2)CC1 (racemic) [Example 61, [4-Amino-2-[[4-(4-methyl-1-piperazinyl)phenyl]amino]-5-thiazolyl][3-nitro-4-[3-(hydroxymethyl)-1-piperidinyl]phenyl]methanone] | 3.5 µM | 0.012 µM | 2.3 µM | 3.9 µM
CC1CCCN1c1ccc(C(=O)c2sc(Nc3ccc(N4CCN(C)CC4)cc3)nc2N)cc1[N+](=O)[O-] (racemic) [Example 62, [4-Amino-2-[[4-(4-methyl-1-piperazinyl)phenyl]amino]-5-thiazolyl][3-nitro-4-(2-methyl-1-pyrrolidinyl)phenyl]methanone] | 10 µM | 0.044 µM | 5.9 µM | 4.4 µM
CN1CCN(c2ccc(Nc3nc(N)c(C(=O)c4ccc5c(c4)OCCO5)s3)cc2)CC1 [Example 24, [4-Amino-2-[[4-(4-methyl-1-piperazinyl)phenyl]amino]-5-thiazolyl](2,3-dihydro-1,4-benzodioxin-6-yl)methanone] | 2.5 µM | 0.02 µM | 4.3 µM | 3.9 µM
CN1CCN(c2ccc(Nc3nc(N)c(C(=O)c4ccc5c(c4)OCO5)s3)cc2)CC1 [Example 25, [4-Amino-2-[[4-(4-methyl-1-piperazinyl)phenyl]amino]-5-thiazolyl](1,3-benzodioxol-5-yl)methanone] | 0.5 µM | 0.018 µM | 3.5 µM | 3.5 µM
CN1CCN(c2ccc(Nc3nc(N)c(C(=O)c4ccc(N5CCCC5)cc4)s3)cc2)CC1 [Example 26, [4-Amino-2-[[4-(4-methyl-1-piperazinyl)phenyl]amino]-5-thiazolyl][4-(1-pyrrolidinyl)phenyl]methanone] | 9 µM | 0.059 µM | 6.2 µM | 5.6 µM
CN1CCN(c2ccc(Nc3nc(N)c(C(=O)c4ccc(N5CCCCC5)cc4)s3)cc2)CC1 [Example 27, [4-Amino-2-[[4-(4-methyl-1-piperazinyl)phenyl]amino]-5-thiazolyl][4-(1-piperidinyl)phenyl]methanone] | 20.1 µM | 0.004 µM | 9.4 µM | 9.1 µM
CN1CCN(c2ccc(Nc3nc(N)c(C(=O)c4ccc(N5CCOCC5)cc4)s3)cc2)CC1 [Example 28, [4-Amino-2-[[4-(4-methyl-1-piperazinyl)phenyl]amino]-5-thiazolyl][4-(4-morpholinyl)phenyl]methanone] | 9.2 µM | 0.017 µM | 22.2 µM | 9.5 µM
CN1CCN(c2ccc(Nc3nc(N)c(C(=O)c4ccc5c(c4)OCCCO5)s3)cc2)CC1 [Example 29, [4-Amino-2-[[4-(4-methyl-1-piperazinyl)phenyl]amino]-5-thiazolyl](3,4-dihydro-2H-1,5-benzodioxepin-7-yl)methanone] | 15.9 µM | 0.103 µM | 9.6 µM | 9.5 µM
CN1CCN(c2ccc(Nc3nc(N)c(C(=O)c4ccc(O)cc4)s3)cc2)CC1 [Example 30, [4-Amino-2-[[4-(4-methyl-1-piperazinyl)phenyl]amino]-5-thiazolyl]-(4-hydroxyphenyl)methanone] | 2.4 µM | 0.053 µM | 2.3 µM | 3.6 µM
CN1CCN(c2ccc(Nc3nc(N)c(C(=O)c4cccc([N+](=O)[O-])c4)s3)cc2)CC1 [Example 31, [4-Amino-2-[[4-(4-methyl-1-piperazinyl)phenyl]amino]-5-thiazolyl](3-nitrophenyl)methanone] | 0.5 µM | 0.026 µM | 2.3 µM | 4.1 µM
COc1ccc(C(=O)c2sc(Nc3ccc(N4CCN(C)CC4)cc3)nc2N)cc1 [Example 32, [4-Amino-2-[[4-(4-methyl-1-piperazinyl)phenyl]amino]-5-thiazolyl](4-methoxyphenyl)methanone] | 3.9 µM | 0.08 µM | 9.6 µM | 5.6 µM
CCN(CC)c1ccc(C(=O)c2sc(Nc3ccc(N4CCN(C)CC4)cc3)nc2N)cc1 [Example 33, [4-Amino-2-[[4-(4-methyl-1-piperazinyl)phenyl]amino]-5-thiazolyl][4-(diethylamino)phenyl]methanone] | 6.1 µM | 0.008 µM | 6.5 µM | 9.2 µM
CN1CCN(c2ccc(Nc3nc(N)c(C(=O)c4ccc5oc6ccccc6c5c4)s3)cc2)CC1 [Example 34, [4-Amino-2-[[4-(4-methyl-1-piperazinyl)phenyl]amino]-5-thiazolyl](2-dibenzofuranyl)methanone] | 11.7 µM | 0.049 µM | 6.1 µM | 3.8 µM
COc1ccc(C(=O)c2sc(Nc3ccc(N4CCN(C)CC4)cc3)nc2N)cc1F [Example 35, [4-Amino-2-[[4-(4-methyl-1-piperazinyl)phenyl]amino]-5-thiazolyl](3-fluoro-4-methoxyphenyl)methanone] | 1.1 µM | 0.008 µM | 1.8 µM | 1.8 µM
COc1cccc(C(=O)c2sc(Nc3ccc(N4CCN(C)CC4)cc3)nc2N)c1 [Example 36, [4-Amino-2-[[4-(4-methyl-1-piperazinyl)phenyl]amino]-5-thiazolyl](3-methoxyphenyl)methanone] | 2.1 µM | 0.025 µM | 5.4 µM | 2.8 µM
CN1CCN(c2ccc(Nc3nc(N)c(C(=O)c4ccc(Cl)c(Cl)c4)s3)cc2)CC1 [Example 37, [4-Amino-2-[[4-(4-methyl-1-piperazinyl)phenyl]amino]-5-thiazolyl](3,4-dichlorophenyl)methanone] | 10 µM | 0.073 µM | 6.3 µM | 6.6 µM
CN1CCN(c2ccc(Nc3nc(N)c(C(=O)c4ccc5c(c4)OCO5)s3)cc2F)CC1 [Example 38, [4-Amino-2-[[3-fluoro-4-(4-methyl-1-piperazinyl)phenyl]amino]-5-thiazolyl](1,3-benzodioxol-5-yl)methanone] | 2 µM | 0.006 µM | 2.6 µM | 1.9 µM
COc1cc(OC)cc(C(=O)c2sc(Nc3ccc(N4CCN(C)CC4)c(F)c3)nc2N)c1 [Example 39, [4-Amino-2-[[3-fluoro-4-(4-methyl-1-piperazinyl)phenyl]amino]-5-thiazolyl](3,5-dimethoxyphenyl)methanone] | 2.8 µM | 0.021 µM | 7.9 µM | 3.6 µM
COc1cccc(C(=O)c2sc(Nc3ccc(N4CCN(C)CC4)c(F)c3)nc2N)c1 [Example 40, [4-Amino-2-[[3-fluoro-4-(4-methyl-1-piperazinyl)phenyl]amino]-5-thiazolyl](3-methoxyphenyl)methanone] | 1.3 µM | 0.014 µM | 3.1 µM | 3 µM
